Source: the supplement of paper PMC10307832

Tests used:
Test in all cases: relative viability (nuclei count vs DMSO), 5 days (fraction); higher = more cells survive
Calu-6 = tested on: Calu-6
Method in brief: (§1)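 Lung cancer cell lines were seeded in 1536-well plates and dosed by pin tool the next day, with either a single drug or a fixed anchor-drug dose combined with five library-drug doses (not always all listed) spaced in √10 steps. Five days later, one step fixed the cells and stained their nuclei (final 0.05% Triton X-100, 1% formaldehyde, 1 ug/ml Hoechst), and nuclei were counted on 4× images. Relative viability is the nuclei count in treated wells divided by the count in vehicle wells, and each value is the median of duplicate plates.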

HCC-366 = tested on: HCC-366
Method in brief: as §1

NCI-H1395 = tested on: NCI-H1395
Method in brief: as §1

EBC-1 = tested on: EBC-1
Method in brief: as §1

HCC-78 = tested on: HCC-78
Method in brief: as §1

NCI-H1623 = tested on: NCI-H1623
Method in brief: as §1

IA-LM = tested on: IA-LM
Method in brief: as §1

A549 = tested on: A549
Method in brief: as §1

NCI-H1703 = tested on: NCI-H1703
Method in brief: as §1

EMC-BAC-2 = tested on: EMC-BAC-2
Method in brief: as §1

LCLC-97TM1 = tested on: LCLC-97TM1
Method in brief: as §1

NCI-H1299 = tested on: NCI-H1299
Method in brief: as §1

NCI-H1648 = tested on: NCI-H1648
Method in brief: as §1

CCNC(=O)c1noc(-c2cc(C(C)C)c(O)cc2O)c1-c1ccc(CN2CCOCC2)cc1 [Luminespib] + COc1cc2c(Oc3ccc(NC(=O)C4(C(=O)Nc5ccc(F)cc5)CC4)cc3F)ccnc2cc1OCCCN1CCOCC1 [Foretinib] (partner 0.25 µM)
relative viability (Calu-6; first compound 0.002 µM): 0.888 | relative viability (Calu-6; first compound 0.006325 µM): 0.889 | relative viability (Calu-6; first compound 0.02 µM): 1.03 | relative viability (Calu-6; first compound 0.06325 µM): 0.0858 | relative viability (Calu-6; first compound 0.2 µM): 0.086 | relative viability (HCC-366; first compound 0.002 µM): 0.925 | relative viability (HCC-366; first compound 0.006325 µM): 0.921 | relative viability (HCC-366; first compound 0.02 µM): 0.921 | relative viability (HCC-366; first compound 0.06325 µM): 0.887 | relative viability (HCC-366; first compound 0.2 µM): 0.199 | relative viability (NCI-H1395; first compound 0.002 µM): 1.04 | relative viability (NCI-H1395; first compound 0.006325 µM): 0.941 | relative viability (NCI-H1395; first compound 0.02 µM): 0.805 | relative viability (NCI-H1395; first compound 0.06325 µM): 0.568 | relative viability (NCI-H1395; first compound 0.2 µM): 0.345 | relative viability (EBC-1; first compound 0.002 µM): 0.0894 | relative viability (EBC-1; first compound 0.006325 µM): 0.116 | relative viability (EBC-1; first compound 0.02 µM): 0.113 | relative viability (EBC-1; first compound 0.06325 µM): 0.0992 | relative viability (EBC-1; first compound 0.2 µM): 0.104 | relative viability (HCC-78; first compound 0.002 µM): 0.627 | relative viability (HCC-78; first compound 0.006325 µM): 0.593 | relative viability (HCC-78; first compound 0.06325 µM): 0.609 | relative viability (HCC-78; first compound 0.2 µM): 0.598 | relative viability (NCI-H1623; first compound 0.002 µM): 0.885 | relative viability (NCI-H1623; first compound 0.006325 µM): 0.783 | relative viability (NCI-H1623; first compound 0.02 µM): 0.67 | relative viability (NCI-H1623; first compound 0.06325 µM): 0.673 | relative viability (NCI-H1623; first compound 0.2 µM): 0.375 | relative viability (IA-LM; first compound 0.002 µM): 1.07 | relative viability (IA-LM; first compound 0.006325 µM): 1.13 | relative viability (IA-LM; first compound 0.02 µM): 1.23 | relative viability (IA-LM; first compound 0.06325 µM): 0.0645 | relative viability (IA-LM; first compound 0.2 µM): 0.0409 | relative viability (A549; first compound 0.002 µM): 1.04 | relative viability (A549; first compound 0.006325 µM): 0.842 | relative viability (A549; first compound 0.02 µM): 1.09 | relative viability (A549; first compound 0.06325 µM): 0.138 | relative viability (A549; first compound 0.2 µM): 0.0269 | relative viability (NCI-H1703; first compound 0.002 µM): 0.332 | relative viability (NCI-H1703; first compound 0.006325 µM): 0.348 | relative viability (NCI-H1703; first compound 0.02 µM): 0.396 | relative viability (NCI-H1703; first compound 0.06325 µM): 0.21 | relative viability (NCI-H1703; first compound 0.2 µM): 0.222 | relative viability (EMC-BAC-2; first compound 0.002 µM): 1.03 | relative viability (EMC-BAC-2; first compound 0.006325 µM): 0.936 | relative viability (EMC-BAC-2; first compound 0.02 µM): 0.942 | relative viability (EMC-BAC-2; first compound 0.06325 µM): 0.915 | relative viability (EMC-BAC-2; first compound 0.2 µM): 0.56 | relative viability (LCLC-97TM1; first compound 0.002 µM): 0.949 | relative viability (LCLC-97TM1; first compound 0.006325 µM): 0.915 | relative viability (LCLC-97TM1; first compound 0.02 µM): 0.935 | relative viability (LCLC-97TM1; first compound 0.06325 µM): 0.952 | relative viability (LCLC-97TM1; first compound 0.2 µM): 0.626 | relative viability (NCI-H1299; first compound 0.002 µM): 1.08 | relative viability (NCI-H1299; first compound 0.006325 µM): 0.989 | relative viability (NCI-H1299; first compound 0.02 µM): 1.09 | relative viability (NCI-H1299; first compound 0.06325 µM): 1.07 | relative viability (NCI-H1299; first compound 0.2 µM): 0.191

CCNC(=O)c1noc(-c2cc(C(C)C)c(O)cc2O)c1-c1ccc(CN2CCOCC2)cc1 [Luminespib] + COc1cccc2cc(-c3nc([C@H]4CC[C@H](C(=O)O)CC4)n4ncnc(N)c34)[nH]c12 [OSI-027] (partner 0.5 µM)
relative viability (HCC-366; first compound 0.002 µM): 1.11 | relative viability (HCC-366; first compound 0.006325 µM): 0.832 | relative viability (HCC-366; first compound 0.02 µM): 0.698 | relative viability (HCC-366; first compound 0.06325 µM): 0.0495 | relative viability (HCC-366; first compound 0.2 µM): 0.0391 | relative viability (NCI-H1395; first compound 0.002 µM): 0.704 | relative viability (NCI-H1395; first compound 0.006325 µM): 0.632 | relative viability (NCI-H1395; first compound 0.02 µM): 0.512 | relative viability (NCI-H1395; first compound 0.06325 µM): 0.337 | relative viability (NCI-H1395; first compound 0.2 µM): 0.321 | relative viability (HCC-78; first compound 0.002 µM): 0.361 | relative viability (HCC-78; first compound 0.006325 µM): 0.323 | relative viability (HCC-78; first compound 0.06325 µM): 0.412 | relative viability (HCC-78; first compound 0.2 µM): 0.301 | relative viability (NCI-H1623; first compound 0.002 µM): 0.449 | relative viability (NCI-H1623; first compound 0.006325 µM): 0.439 | relative viability (NCI-H1623; first compound 0.02 µM): 0.415 | relative viability (NCI-H1623; first compound 0.06325 µM): 0.343 | relative viability (NCI-H1623; first compound 0.2 µM): 0.293 | relative viability (EMC-BAC-2; first compound 0.002 µM): 0.426 | relative viability (EMC-BAC-2; first compound 0.006325 µM): 0.354 | relative viability (EMC-BAC-2; first compound 0.02 µM): 0.415 | relative viability (EMC-BAC-2; first compound 0.06325 µM): 0.348 | relative viability (EMC-BAC-2; first compound 0.2 µM): 0.184 | relative viability (NCI-H1648; first compound 0.006325 µM): 0.283 | relative viability (NCI-H1648; first compound 0.02 µM): 0.289 | relative viability (NCI-H1648; first compound 0.06325 µM): 0.366 | relative viability (NCI-H1648; first compound 0.2 µM): 0.335 | relative viability (LCLC-97TM1; first compound 0.002 µM): 0.543 | relative viability (LCLC-97TM1; first compound 0.006325 µM): 0.601 | relative viability (LCLC-97TM1; first compound 0.02 µM): 0.304 | relative viability (LCLC-97TM1; first compound 0.06325 µM): 0.492 | relative viability (LCLC-97TM1; first compound 0.2 µM): 0.114
